Experimental data as given in US12441722B2, “Therapeutic agents and methods of treatment” (University of Florida Research Foundation, Incorporated, priority 2020, dated 2025).

test system: MOLT-4; assay: Cell viability assay (tetrazolium-based MTS) in MOLT4 cells; settings: Homo sapiens, MOLT-4, MOLT4 acute lymphoblastic leukemia cells, 48 h incubation
Method: Cancer cells from acute lymphoblastic leukemia (MOLT4) were incubated with increasing concentrations of compounds of Examples 1-9 for 48 h. Cell viability was measured by tetrazolium-based MTS assay. 5×10^4 to 1×10^5 suspension cells or 3×10^3 to 5×10^3 adherent cells were seeded and treated in 96-well plates for 48 h. The EC50 values of individual agents were calculated with GraphPad Prism.

EC50 | Structure (SMILES)
10 to 100 nM | Cc1ncsc1-c1ccc([C@H](CC(=O)NCCNC(=O)c2nc(N3CCc4cccc(C(=O)Nc5nc6ccccc6s5)c4C3)ccc2-c2cnn(CC34CC5CC(CC(C5)C3)C4)c2C)NC(=O)[C@@H]2C[C@@H](O)CN2C(=O)[C@@H](NC(=O)C2(C#N)CC2)C(C)(C)C)cc1 [degrader #20, 2-(5-(1-(adamantan-1-ylmethyl)-5-methyl-1H-pyrazol-4-yl)-6-((2-((S)-3-((2S,4R)-1-((S)-2-(1-cyanocyclopropane-1-carboxamido)-3,3-dimethylbutanoyl)-4-hydroxypyrrolidine-2-carboxamido)-3-(4-(4-methylthiazol-5-yl)phenyl)propanamido)ethyl)carbamoyl)pyridin-2-yl)-N-(benzo[d]thiazol-2-yl)-1,2,3,4-tetrahydroisoquinoline-8-carboxamide]
100 to 1000 nM | Cc1ncsc1-c1ccc([C@H](CC(=O)NCCCNC(=O)c2nc(N3CCc4cccc(C(=O)Nc5nc6ccccc6s5)c4C3)ccc2-c2cnn(CC34CC5CC(CC(C5)C3)C4)c2C)NC(=O)[C@@H]2C[C@@H](O)CN2C(=O)[C@@H](NC(=O)C2(C#N)CC2)C(C)(C)C)cc1 [degrader #21, 2-(5-(1-(adamantan-1-ylmethyl)-5-methyl-1H-pyrazol-4-yl)-6-((3-((S)-3-((2S,4R)-1-((S)-2-(1-cyanocyclopropane-1-carboxamido)-3,3-dimethylbutanoyl)-4-hydroxypyrrolidine-2-carboxamido)-3-(4-(4-methylthiazol-5-yl)phenyl)propanamido)propyl)carbamoyl)pyridin-2-yl)-N-(benzo[d]thiazol-2-yl)-1,2,3,4-tetrahydroisoquinoline-8-carboxamide]
10 to 100 nM | Cc1ncsc1-c1ccc([C@H](CC(=O)NCCCCNC(=O)c2nc(N3CCc4cccc(C(=O)Nc5nc6ccccc6s5)c4C3)ccc2-c2cnn(CC34CC5CC(CC(C5)C3)C4)c2C)NC(=O)[C@@H]2C[C@@H](O)CN2C(=O)[C@@H](NC(=O)C2(C#N)CC2)C(C)(C)C)cc1 [degrader #22, 2-(5-(1-(adamantan-1-ylmethyl)-5-methyl-1H-pyrazol-4-yl)-6-((4-((S)-3-((2S,4R)-1-((S)-2-(1-cyanocyclopropane-1-carboxamido)-3,3-dimethylbutanoyl)-4-hydroxypyrrolidine-2-carboxamido)-3-(4-(4-methylthiazol-5-yl)phenyl)propanamido)butyl)carbamoyl)pyridin-2-yl)-N-(benzo[d]thiazol-2-yl)-1,2,3,4-tetrahydroisoquinoline-8-carboxamide]
10 to 100 nM | Cc1ncsc1-c1ccc([C@H](CC(=O)NCCCCCNC(=O)c2nc(N3CCc4cccc(C(=O)Nc5nc6ccccc6s5)c4C3)ccc2-c2cnn(CC34CC5CC(CC(C5)C3)C4)c2C)NC(=O)[C@@H]2C[C@@H](O)CN2C(=O)[C@@H](NC(=O)C2(C#N)CC2)C(C)(C)C)cc1 [degrader #23, 2-(5-(1-(adamantan-1-ylmethyl)-5-methyl-1H-pyrazol-4-yl)-6-((5-((S)-3-((2S,4R)-1-((S)-2-(1-cyanocyclopropane-1-carboxamido)-3,3-dimethylbutanoyl)-4-hydroxypyrrolidine-2-carboxamido)-3-(4-(4-methylthiazol-5-yl)phenyl)propanamido)pentyl)carbamoyl)pyridin-2-yl)-N-(benzo[d]thiazol-2-yl)-1,2,3,4-tetrahydroisoquinoline-8-carboxamide]

Further lines, the compound ahead of its results:

Structure (SMILES) | EC50
Cc1ncsc1-c1ccc([C@H](C)NC(=O)[C@@H]2C[C@@H](O)CN2C(=O)[C@@H](NC(=O)CCCCCCCCCS(=O)(=O)NC(=O)c2nc(N3CCc4cccc(C(=O)Nc5nc6ccccc6s5)c4C3)ccc2-c2cnn(CC34CC5CC(CC(C5)C3)C4)c2C)C(C)(C)C)cc1 [degrader #15, 2-(5-(1-(adamantan-1-ylmethyl)-5-methyl-1H-pyrazol-4-yl)-6-(((10-(((S)-1-((2S,4R)-4-hydroxy-2-(((S)-1-(4-(4-methylthiazol-5-yl)phenyl)ethyl)carbamoyl)pyrrolidin-1-yl)-3,3-dimethyl-1-oxobutan-2-yl)amino)-10-oxodecyl)sulfonyl)carbamoyl)pyridin-2-yl)-N-(benzo[d]thiazol-2-yl)-1,2,3,4-tetrahydroisoquinoline-8-carboxamide] | 10 to 100 nM
Cc1ncsc1-c1ccc([C@H](C)NC(=O)[C@@H]2C[C@@H](O)CN2C(=O)[C@@H](NC(=O)CCCCCCCCCCS(=O)(=O)NC(=O)c2nc(N3CCc4cccc(C(=O)Nc5nc6ccccc6s5)c4C3)ccc2-c2cnn(CC34CC5CC(CC(C5)C3)C4)c2C)C(C)(C)C)cc1 [degrader #16, 2-(5-(1-(adamantan-1-ylmethyl)-5-methyl-1H-pyrazol-4-yl)-6-(((11-(((S)-1-((2S,4R)-4-hydroxy-2-(((S)-1-(4-(4-methylthiazol-5-yl)phenyl)ethyl)carbamoyl)pyrrolidin-1-yl)-3,3-dimethyl-1-oxobutan-2-yl)amino)-11-oxoundecyl)sulfonyl)carbamoyl)pyridin-2-yl)-N-(benzo[d]thiazol-2-yl)-1,2,3,4-tetrahydroisoquinoline-8-carboxamide] | 10 to 100 nM
Cc1ncsc1-c1ccc([C@H](C)NC(=O)[C@@H]2C[C@@H](O)CN2C(=O)[C@@H](NC(=O)CCCCCCCS(=O)(=O)NC(=O)c2nc(N3CCc4cccc(C(=O)Nc5nc6ccccc6s5)c4C3)ccc2-c2cc(C#N)n(CC34CC5CC(CC(C5)C3)C4)c2C)C(C)(C)C)cc1 [degrader #18, 2-(5-(1-(adamantan-1-ylmethyl)-5-cyano-2-methyl-1H-pyrrol-3-yl)-6-(((8-(((S)-1-((2S,4R)-4-hydroxy-2-(((S)-1-(4-(4-methylthiazol-5-yl)phenyl)ethyl)carbamoyl)pyrrolidin-1-yl)-3,3-dimethyl-1-oxobutan-2-yl)amino)-8-oxooctyl)sulfonyl)carbamoyl)pyridin-2-yl)-N-(benzo[d]thiazol-2-yl)-1,2,3,4-tetrahydroisoquinoline-8-carboxamide] | 10 to 100 nM
Cc1ncsc1-c1ccc([C@H](C)NC(=O)[C@@H]2C[C@@H](O)CN2C(=O)[C@@H](NC(=O)CCCCCCCNC(=O)c2nc(N3CCc4cccc(C(=O)Nc5nc6ccccc6s5)c4C3)ccc2-c2cnn(CC34CC5CC(CC(C5)C3)C4)c2C)C(C)(C)C)cc1 [degrader #19, 2-(5-(1-(adamantan-1-ylmethyl)-5-methyl-1H-pyrazol-4-yl)-6-((8-(((S)-1-((2S,4R)-4-hydroxy-2-(((S)-1-(4-(4-methylthiazol-5-yl)phenyl)ethyl)carbamoyl)pyrrolidin-1-yl)-3,3-dimethyl-1-oxobutan-2-yl)amino)-8-oxooctyl)carbamoyl)pyridin-2-yl)-N-(benzo[d]thiazol-2-yl)-1,2,3,4-tetrahydroisoquinoline-8-carboxamide] | 10 to 100 nM

same assay, conditions: MOLT4 acute lymphoblastic leukemia cells, 48 h incubation

EC50 | Structure (SMILES)
100 to 1000 nM | Cc1ncsc1-c1ccc([C@H](CC(=O)NCCCCCCNC(=O)c2nc(N3CCc4cccc(C(=O)Nc5nc6ccccc6s5)c4C3)ccc2-c2cnn(CC34CC5CC(CC(C5)C3)C4)c2C)NC(=O)[C@@H]2C[C@@H](O)CN2C(=O)[C@@H](NC(=O)C2(C#N)CC2)C(C)(C)C)cc1 [degrader #24, 2-(5-(1-(adamantan-1-ylmethyl)-5-methyl-1H-pyrazol-4-yl)-6-((6-((S)-3-((2S,4R)-1-((S)-2-(1-cyanocyclopropane-1-carboxamido)-3,3-dimethylbutanoyl)-4-hydroxypyrrolidine-2-carboxamido)-3-(4-(4-methylthiazol-5-yl)phenyl)propanamido)hexyl)carbamoyl)pyridin-2-yl)-N-(benzo[d]thiazol-2l)-1,2,3,4-tetrahydroisoquinoline-8-carboxamide]
100 to 1000 nM | Cc1ncsc1-c1ccc([C@H](CC(=O)NCCCCCCCCNC(=O)c2nc(N3CCc4cccc(C(=O)Nc5nc6ccccc6s5)c4C3)ccc2-c2cnn(CC34CC5CC(CC(C5)C3)C4)c2C)NC(=O)[C@@H]2C[C@@H](O)CN2C(=O)[C@@H](NC(=O)C2(C#N)CC2)C(C)(C)C)cc1 [degrader #25, 2-(5-(1-(adamantan-1-ylmethyl)-5-methyl-1H-pyrazol-4-yl)-6-((8-((S)-3-((2S,4R)-1-((S)-2-(1-cyanocyclopropane-1-carboxamido)-3,3-dimethylbutanoyl)-4-hydroxypyrrolidine-2-carboxamido)-3-(4-(4-methylthiazol-5-yl)phenyl)propanamido)octyl)carbamoyl)pyridin-2-yl)-N-(benzo[d]thiazol-2-yl)-1,2,3,4-tetrahydroisoquninoline-8-carboxamide]

The next lines start with the compound.

Structure (SMILES) | EC50
Cc1ncsc1-c1ccc([C@H](C)NC(=O)[C@@H]2C[C@@H](O)CN2C(=O)[C@@H](NC(=O)CCCCCCCCCCCS(=O)(=O)NC(=O)c2nc(N3CCc4cccc(C(=O)Nc5nc6ccccc6s5)c4C3)ccc2-c2cnn(CC34CC5CC(CC(C5)C3)C4)c2C)C(C)(C)C)cc1 [degrader #17, 2-(5-(1-(adamantan-1-ylymethyl)-5-methyl-1H-pyrazol-4-yl)-6-(((12-(((S)-1-((2S,4R)-4-hydroxy-2-(((S)-1-(4-(4-methylthiazol-5-yl)phenyl)ethyl)carbamoyl)pyrrolidin-1-yl)-3,3-dimethyl-1-oxobutan-2-yl)amino)-12-oxododecyl)sulfonyl)carbamoyl)pyridin-2-yl)-N-(benzo[d]thiazol-2-yl)-1,2,3,4-tetrahydroisoquinoline-8-carboxamide] | 10 to 100 nM
Cc1c(-c2ccc(N3CCc4cccc(C(=O)Nc5nc6ccccc6s5)c4C3)nc2C(=O)NCCOCCOCCOCC#Cc2cccc3c2C(=O)N(C2CCC(=O)NC2=O)C3=O)cnn1CC12CC3CC(CC(C3)C1)C2 (stereo not drawn) [degrader #26, 2-(5-(1-(adamantan-1-ylmethyl)-5-methyl-1H-pyrazol-4-yl)-6-((2-(2-(2-((3-(2-(2,6-dioxopiperidin-3-yl)-1,3-dioxoisoindolin-4-yl)prop-2-yn-1-yl)oxy)ethoxy)ethoxy)ethyl)carbamoyl)pyridin-2-yl)-N-(benzo[d]thiazol-2-yl)-1,2,3,4-tetrahydroisocuinoline-8-carboxamide] | 10 to 100 nM
